Literature values in patent US7030077B2, “Detergent compositions” (Unilever Home and Personal Care USA, a division of Conopco, …, priority 2002, dated 2006).
Read-outs that look alike come from different tables or passages of the source.

[1] = other common materials, by contrast, at 20° C.

Compound	Water Solubility (g/100 g) (highly water-soluble materials, grams of solid to form a saturated solution in 100 g of deionised water at 20° C.)	Water Solubility (g/100 g) [1] [g/100 g]
NC(N)=O [Urea]	>100	
O=BO[O-].[Na+] [Sodium perborate anhydrous]		3.7
O=P(O)(O)OP(=O)(O)OP(=O)(O)O [Sodium tripolyphosphate anhydrous]		15
